Patent publication US20250145665A1, “MACROCYCLIC PEPTIDES USEFUL AS MODULATORS OF TNF ALPHA” (Bristol-Myers Squibb Company, priority 2023, published 2025)
pIC50: −log10 of the molar value. Where two headings read alike, the source gives them in different places. Starred links: 1 amine or outer side, 2 acyl side, 3 side chain; linkers in the order of their positions; H or OH if unused. Positions of bridges follow the written chain, without caps; N, C: chain ends. Non-standard residues stand in square brackets, D forms with d. Residues, ends and D or L forms follow the SMILES beside them. *: point of attachment. Bip(4'-NHCO-C6H4-3-CH2COOH) = N[C@@H](Cc1ccc(-c2ccc(NC(=O)c3cccc(CC(=O)O)c3)cc2)cc1)C(=O)O; Bip(4'-NH) = O=C([C@H](Cc1ccc(-c2ccc(N[*:3])cc2)cc1)N[*:1])[*:2]; Bip(4'-CONHMe) = CNC(=O)c1ccc(-c2ccc(C[C@H](N)C(=O)O)cc2)cc1; Indazole3carbonyl(1-CH2COOH) = O=C(O)Cn1nc(C(=O)*)c2ccccc21; Bip(4'-COOH) = N[C@@H](Cc1ccc(-c2ccc(C(=O)O)cc2)cc1)C(=O)O; Bip(4'-NHAc) = CC(=O)Nc1ccc(-c2ccc(C[C@H](N)C(=O)O)cc2)cc1; Indole3carbonyl(1-CH2COOH) = O=C(O)Cn1cc(C(=O)*)c2ccccc21; X18 = N=C(NCCC[C@@H](N[*:1])C(=O)[*:2])NCCc1ccc(O)cc1; X7 = N=C(NCCC[C@@H](N[*:1])C(=O)[*:2])NCc1ccc2occc2c1; Ala(imidazol-2-yl) = N[C@@H](Cc1ncc[nH]1)C(=O)O; dArg(ω-Bn) = N=C(NCCC[C@@H](N)C(=O)O)NCc1ccccc1; Ala(morpholin-4-yl) = N[C@@H](CN1CCOCC1)C(=O)O; Benzoyl(4-OCH2COOH) = O=C(O)COc1ccc(C(=O)*)cc1; Phe(3-CONH2) = NC(=O)c1cccc(C[C@H](N)C(=O)O)c1; Bip = N[C@@H](Cc1ccc(-c2ccccc2)cc1)C(=O)O; Ala(2-furyl) = N[C@@H](Cc1ccco1)C(=O)O; 2Pal = N[C@@H](Cc1ccccn1)C(=O)O; 3Pal = N[C@@H](Cc1cccnc1)C(=O)O; 2Thi = N[C@@H](Cc1cccs1)C(=O)O; Cha = N[C@@H](CC1CCCCC1)C(=O)O; Tle = CC(C)(C)[C@H](N)C(=O)O; Pip = O=C(O)[C@@H]1CCCCN1; Aze = O=C(O)[C@@H]1CCN1; Sar = CNCC(=O)O

Biological target: TNFα (Homo sapiens, UniProt P01375)
Test: TNF-Induced HEK-Blue Assay
Type: cell-based
[1] = HEK-Blue-CD40L cells, NF-kB-driven secreted alkaline phosphatase reporter, TNFα 0.5 ng/ml, 18 h, read-out: TNF induced HEK-Blue assay IC50 value

TNFα, sequence (P01375 77-233 limits assumed): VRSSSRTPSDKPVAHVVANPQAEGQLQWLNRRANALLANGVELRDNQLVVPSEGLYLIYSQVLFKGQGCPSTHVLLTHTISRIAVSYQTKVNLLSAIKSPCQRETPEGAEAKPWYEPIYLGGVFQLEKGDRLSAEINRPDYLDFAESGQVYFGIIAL

| pIC50 [1] | Structure (SMILES) | pIC50 |
| --- | --- | --- |
| 6.70 to 7.30 | CC(C)C[C@@H]1NC(=O)[C@H](Cc2cnc[nH]2)NC(=O)[C@H](C(C)C)NC(=O)[C@@H]2CCCN2C(=O)[C@H](C(C)C)NC(=O)[C@@H](CCCNC(=N)N)NC(=O)[C@H](CC(=O)O)NC(=O)[C@@H]2CCCN2C(=O)CN(C)C(=O)[C@H](Cc2ccc(-c3ccc(NC(=O)c4ccc(OCC(=O)O)cc4)cc3)cc2)NC(=O)[C@H](Cc2ccc(-c3ccccc3)cc2)NC(=O)[C@H](CC2CCCCC2)NC(=O)CSC[C@@H](C(=O)NCC(N)=O)NC1=O [Example 493] ({CH2CO}-[Cha][Bip][Bip(4'-NH)](Benzoyl(4-OCH2COOH))[Sar]PD[dR]VPVHLCG-NH2; thioether N-13) | – |
| 6.70 to 7.30 | CC[C@H](C)[C@@H]1NC(=O)[C@@H](CCCNC(=N)NCc2ccc3occc3c2)NC(=O)[C@H](CC(=O)O)NC(=O)[C@H](Cc2cnc[nH]2)NC(=O)CN(C)C(=O)[C@H](Cc2ccc(-c3ccc(NC(=O)c4cccc(CC(=O)O)c4)cc3)cc2)NC(=O)[C@H](Cc2ccc(-c3ccccc3)cc2)NC(=O)[C@H](CC2CCCCC2)NC(=O)CSC[C@@H](C(=O)NCC(N)=O)NC(=O)[C@H](CC(C)C)NC(=O)[C@H](Cc2c[nH]cn2)NC(=O)[C@H](C(C)C)NC(=O)[C@@H]2CCCN2C1=O [Example 505] ({CH2CO}-[Cha][Bip][Bip(4'-NHCO-C6H4-3-CH2COOH)][Sar]HD[X7]IPVHLCG-NH2; thioether N-13) | – |
| – | CC(C)C[C@@H]1NC(=O)[C@H](Cc2cccc(C(N)=O)c2)NC(=O)[C@H](C(C)C)NC(=O)[C@@H]2CCCN2C(=O)[C@H](C(C)C)NC(=O)[C@@H](CCCNC(=N)NCc2ccccc2)NC(=O)[C@H](CC(=O)O)NC(=O)[C@H](Cc2ccc(O)cc2)NC(=O)CN(C)C(=O)[C@H](Cc2ccc(-c3ccc(NC(=O)c4cn(CC(=O)O)c5ccccc45)cc3)cc2)NC(=O)[C@H](Cc2ccc(-c3ccccc3)cc2)NC(=O)[C@H](CN2CCOCC2)NC(=O)CSC[C@@H](C(=O)NCC(N)=O)NC1=O [Example 601] ({CH2CO}-[Ala(morpholin-4-yl)][Bip][Bip(4'-NH)](Indole3carbonyl(1-CH2COOH))[Sar]YD[dArg(ω-Bn)]VPV[Phe(3-CONH2)]LCG-NH2; thioether N-13) | > 7.30 |
| > 7.30 | CC(=O)Nc1ccc(-c2ccc(C[C@@H]3NC(=O)[C@H](Cc4ccc(-c5ccccc5)cc4)NC(=O)[C@H](CN4CCOCC4)NC(=O)CSC[C@@H](C(=O)NCC(N)=O)NC(=O)[C@H](CC(C)C)NC(=O)[C@H](Cc4cccnc4)NC(=O)[C@H](C(C)C)NC(=O)[C@@H]4CCCN4C(=O)[C@H](C(C)C)NC(=O)[C@@H](CCCNC(=N)N)NC(=O)[C@H](CC(=O)O)NC(=O)[C@H](Cc4ccc(O)cc4)NC(=O)CN(C)C3=O)cc2)cc1 [Example 223] ({CH2CO}-[Ala(morpholin-4-yl)][Bip][Bip(4'-NHAc)][Sar]YD[dR]VPV[3Pal]LCG-NH2; thioether N-13) | – |
| 5.70 to 6.70 | CC(C)C[C@@H]1NC(=O)[C@H](CCCNC(=N)N)NC(=O)[C@H](C(C)C)NC(=O)[C@@H]2CCCN2C(=O)[C@H](Cc2ccc(O)cc2)NC(=O)[C@H](CCCNC(=N)N)NC(=O)[C@H](CC(=O)O)NC(=O)[C@@H]2CCCN2C(=O)CN(C)C(=O)[C@H](Cc2ccc(-c3ccccc3)cc2)NC(=O)[C@H](Cc2ccc(-c3ccccc3)cc2)NC(=O)[C@H](Cc2ccccc2)NC(=O)CSC[C@@H](C(=O)NCC(N)=O)NC1=O [Example 15] ({CH2CO}-F[Bip][Bip][Sar]PDRYPVRLCG-NH2; thioether N-13) | – |
| > 7.30 | CC(=O)Nc1ccc(-c2ccc(C[C@@H]3NC(=O)[C@H](Cc4ccc(-c5ccc(C(=O)O)cc5)cc4)NC(=O)[C@H](CN4CCOCC4)NC(=O)CSC[C@@H](C(=O)NCC(N)=O)NC(=O)[C@H](CC(C)C)NC(=O)[C@H](Cc4ncc[nH]4)NC(=O)[C@H](C(C)C)NC(=O)[C@@H]4CCCN4C(=O)[C@H](C(C)C)NC(=O)[C@@H](CCCNC(=N)N)NC(=O)[C@H](CC(=O)O)NC(=O)[C@H](Cc4cccs4)NC(=O)CN(C)C3=O)cc2)cc1 [Example 462] ({CH2CO}-[Ala(morpholin-4-yl)][Bip(4'-COOH)][Bip(4'-NHAc)][Sar][2Thi]D[dR]VPV[Ala(imidazol-2-yl)]LCG-NH2; thioether N-13) | – |
| > 7.30 | CC(=O)Nc1ccc(-c2ccc(C[C@@H]3NC(=O)[C@H](Cc4ccc(-c5ccc(C(=O)O)cc5)cc4)NC(=O)[C@H](CN4CCOCC4)NC(=O)CSC[C@@H](C(=O)NCC(N)=O)NC(=O)[C@H](CC(C)C)NC(=O)[C@H](CCCNC(=N)N)NC(=O)[C@H](C)NC(=O)[C@@H]4CCCN4C(=O)[C@H](C(C)C)NC(=O)[C@@H](CCCNC(=N)N)NC(=O)[C@H](CC(=O)O)NC(=O)[C@@H]4CCCN4C(=O)CN(C)C3=O)cc2)cc1 [Example 198] ({CH2CO}-[Ala(morpholin-4-yl)][Bip(4'-COOH)][Bip(4'-NHAc)][Sar]PD[dR]VPARLCG-NH2; thioether N-13) | – |
| > 7.30 | CC(=O)Nc1ccc(-c2ccc(C[C@@H]3NC(=O)[C@H](Cc4ccc(-c5ccccc5)cc4)NC(=O)[C@H](CC4CCCCC4)NC(=O)CSC[C@@H](C(=O)NCC(N)=O)NC(=O)[C@H](CC(C)C)NC(=O)[C@H](Cc4ncc[nH]4)NC(=O)[C@H](C(C)C)NC(=O)[C@@H]4CCCN4C(=O)[C@H](C(C)C)NC(=O)[C@@H](CCCNC(=N)N)NC(=O)[C@H](CC(=O)O)NC(=O)[C@H](Cc4ccco4)NC(=O)CN(C)C3=O)cc2)cc1 [Example 451] ({CH2CO}-[Cha][Bip][Bip(4'-NHAc)][Sar][Ala(2-furyl)]D[dR]VPV[Ala(imidazol-2-yl)]LCG-NH2; thioether N-13) | – |
| > 7.30 | CC[C@H](C)[C@@H]1NC(=O)[C@@H](CCCNC(=N)N)NC(=O)[C@H](CC(=O)O)NC(=O)[C@H](Cc2cnc[nH]2)NC(=O)CN(C)C(=O)[C@H](Cc2ccc(-c3ccc(NC(=O)c4cccc(CC(=O)O)c4)cc3)cc2)NC(=O)[C@H](Cc2ccc(-c3ccc(C(=O)NC)cc3)cc2)NC(=O)[C@H](CC2CCCCC2)NC(=O)CSC[C@@H](C(=O)NCC(N)=O)NC(=O)[C@H](CC(C)C)NC(=O)[C@H](Cc2cnc[nH]2)NC(=O)[C@H](C(C)C)NC(=O)[C@@H]2CCCN2C1=O [Example 527] ({CH2CO}-[Cha][Bip(4'-CONHMe)][Bip(4'-NHCO-C6H4-3-CH2COOH)][Sar]HD[dR]IPVHLCG-NH2; thioether N-13) | – |
| > 7.30 | CC[C@H](C)[C@@H]1NC(=O)[C@@H]2CCN2C(=O)[C@H]([C@@H](C)CC)NC(=O)[C@@H](CCCNC(=N)N)NC(=O)[C@H](CC(=O)O)NC(=O)[C@H](Cc2ccc(O)cc2)NC(=O)CN(C)C(=O)[C@H](Cc2ccc(-c3ccc(NC(C)=O)cc3)cc2)NC(=O)[C@H](Cc2ccc(-c3ccccc3)cc2)NC(=O)[C@H](C(C)(C)C)NC(=O)CSC[C@@H](C(=O)NCC(N)=O)NC(=O)[C@H](CC(C)C)NC(=O)[C@H](Cc2ccc(O)cc2)NC1=O [Example 294] ({CH2CO}-[Tle][Bip][Bip(4'-NHAc)][Sar]YD[dR]I[Aze]IYLCG-NH2; thioether N-13) | – |
| 5.70 to 6.70 | CC(C)C[C@@H]1NC(=O)[C@H](CCCNC(=N)N)NC(=O)[C@H](C(C)C)NC(=O)[C@@H]2CCCCN2C(=O)[C@H](C(C)C)NC(=O)[C@H](CCCNC(=N)N)NC(=O)[C@H](CC(=O)O)NC(=O)[C@@H]2CCCN2C(=O)CN(C)C(=O)[C@H](Cc2ccc(-c3ccccc3)cc2)NC(=O)[C@H](Cc2ccc(-c3ccccc3)cc2)NC(=O)[C@H](Cc2ccccc2)NC(=O)CSC[C@@H](C(=O)NCC(N)=O)NC1=O [Example 41] ({CH2CO}-F[Bip][Bip][Sar]PDRV[Pip]VRLCG-NH2; thioether N-13) | – |
| > 7.30 | CC(C)C[C@@H]1NC(=O)[C@H](Cc2cccs2)NC(=O)[C@H](C(C)C)NC(=O)[C@@H]2CCCN2C(=O)[C@H](C(C)C)NC(=O)[C@@H](CCCNC(=N)N)NC(=O)[C@H](CC(=O)O)NC(=O)[C@H](Cc2ccccn2)NC(=O)CN(C)C(=O)[C@H](Cc2ccc(-c3ccc(NC(=O)c4cccc(CC(=O)O)c4)cc3)cc2)NC(=O)[C@H](Cc2ccc(-c3ccc(C(=O)O)cc3)cc2)NC(=O)[C@H](CN2CCOCC2)NC(=O)CSC[C@@H](C(=O)NCC(N)=O)NC1=O [Example 610] ({CH2CO}-[Ala(morpholin-4-yl)][Bip(4'-COOH)][Bip(4'-NHCO-C6H4-3-CH2COOH)][Sar][2Pal]D[dR]VPV[2Thi]LCG-NH2; thioether N-13) | – |
| > 7.30 | CC[C@H](C)[C@@H]1NC(=O)[C@@H]2CCCN2C(=O)[C@H](C(C)C)NC(=O)[C@@H](CCCNC(=N)N)NC(=O)[C@H](CC(=O)O)NC(=O)[C@H](Cc2ccccn2)NC(=O)CN(C)C(=O)[C@H](Cc2ccc(-c3ccc(NC(C)=O)cc3)cc2)NC(=O)[C@H](Cc2ccc(-c3ccccc3)cc2)NC(=O)[C@H](CN2CCOCC2)NC(=O)CSC[C@@H](C(=O)NCC(N)=O)NC(=O)[C@H](CC(C)C)NC(=O)[C@H](Cc2ncc[nH]2)NC1=O [Example 464] ({CH2CO}-[Ala(morpholin-4-yl)][Bip][Bip(4'-NHAc)][Sar][2Pal]D[dR]VPI[Ala(imidazol-2-yl)]LCG-NH2; thioether N-13) | – |
| – | CC(C)C[C@@H]1NC(=O)[C@H](CCCNC(=N)N)NC(=O)[C@H](C(C)C)NC(=O)[C@@H]2CCCN2C(=O)[C@H](C(C)C)NC(=O)[C@@H](CCCNC(=N)NCCc2ccc(O)cc2)NC(=O)[C@H](CC(=O)O)NC(=O)[C@@H]2CCCN2C(=O)CN(C)C(=O)[C@H](Cc2ccc(-c3ccc(NC(=O)c4nn(CC(=O)O)c5ccccc45)cc3)cc2)NC(=O)[C@H](Cc2ccc(-c3ccccc3)cc2)NC(=O)[C@H](CN2CCOCC2)NC(=O)CSC[C@@H](C(=O)NCC(N)=O)NC1=O [Example 403] ({CH2CO}-[Ala(morpholin-4-yl)][Bip][Bip(4'-NH)](Indazole3carbonyl(1-CH2COOH))[Sar]PD[X18]VPVRLCG-NH2; thioether N-13) | 6.70 to 7.30 |
| 6.70 to 7.30 | CC(=O)Nc1ccc(-c2ccc(C[C@@H]3NC(=O)[C@H](Cc4ccc(-c5ccccc5)cc4)NC(=O)[C@H](CN4CCOCC4)NC(=O)CSC[C@@H](C(=O)NCC(N)=O)NC(=O)[C@H](CC(C)C)NC(=O)[C@H](Cc4ccccc4)NC(=O)[C@H](C(C)C)NC(=O)[C@@H]4CCCN4C(=O)[C@H](C(C)C)NC(=O)[C@@H](CCCNC(=N)N)NC(=O)[C@H](CC(=O)O)NC(=O)[C@H](Cc4ccccc4)NC(=O)CN(C)C3=O)cc2)cc1 [Example 174] ({CH2CO}-[Ala(morpholin-4-yl)][Bip][Bip(4'-NHAc)][Sar]FD[dR]VPVFLCG-NH2; thioether N-13) | – |
